Experiments:
hepatocytes = assay: Illumina Sentrix arrays: hepatocytes treated with TGF-β1 and calcitriol (Tables 9 and 10); format: cell-based; details: rat hepatocytes, TGF-β1 2 ng/mL, 24 h
Description: Cells were cultured and treated as described in Example 14. Gene expression was determined using Illumina Sentrix expression arrays, rat version 1, according to the manufacturer's instructions.
Triplicate biologic replicates were assayed for each treatment.

VDR [1] = target: T1, VDR (Rattus norvegicus, UniProt P13053); assay: Western blot of VDR in Kupffer cells (KCs); format: cell-based; parameters: endogenous in cells; host or cells: primary rat hepatic stellate cells, sinusoidal endothelial cells, Kupffer cells and hepatocytes (Sprague-Dawley rats); details: FIG. 10B
T1 sequence (P13053 1-423): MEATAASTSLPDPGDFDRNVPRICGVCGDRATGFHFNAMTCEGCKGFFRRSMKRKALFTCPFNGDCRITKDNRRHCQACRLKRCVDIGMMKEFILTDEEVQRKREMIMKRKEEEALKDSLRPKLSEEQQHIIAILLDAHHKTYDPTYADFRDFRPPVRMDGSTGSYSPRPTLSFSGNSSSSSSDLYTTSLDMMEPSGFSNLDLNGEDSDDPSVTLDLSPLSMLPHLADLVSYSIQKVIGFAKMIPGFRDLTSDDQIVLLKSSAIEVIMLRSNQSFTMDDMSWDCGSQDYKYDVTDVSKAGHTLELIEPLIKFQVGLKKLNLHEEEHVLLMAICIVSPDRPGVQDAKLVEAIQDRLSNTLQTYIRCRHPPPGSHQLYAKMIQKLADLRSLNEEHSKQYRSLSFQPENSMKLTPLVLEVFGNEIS

primary HSCs = assay: Illumina array: TGFβ1-treated primary rat HSCs with vitamin D3 (Table 4); details: rat HSCs 24 h; TGFβ1 100 pM, vitamin D3 1 nM
HSCs = details: rat HSCs 24 h; LPS 15 ng/ml, TGFβ 2 ng/ml, calcitriol 10 nM; control = 1
VDR [2] = target: T1, VDR; assay: QPCR of VDR, Cyp24a1 and Hnf4α mRNA in primary rat hepatocytes; format: cell-based; parameters: endogenous in cells; host or cells: primary rat hepatic stellate cells, sinusoidal endothelial cells, Kupffer cells and hepatocytes (Sprague-Dawley rats); details: 24 hours, TGF-β1 2 ng/mL, calcitriol 10 nM

- VDR protein expression (VDR [1]): induced
- Cyp24a1 mRNA expression (VDR [2]): no effect
- HNF4α expression (VDR [2]): some increase
- VDR mRNA expression (VDR [2]): capable of inducing
Substance: TGF-β1: transforming growth factor beta 1; human recombinant from Sigma-Aldrich T7039
- Abcb4 gene expression (hepatocytes): 96.93
- Abcg2 gene expression (hepatocytes): 913.91
- Abcg4 gene expression (hepatocytes): 95.82
- Ccl3 gene expression (hepatocytes): 540.53
- Ccl4 gene expression (hepatocytes): 380.06
- Ccl7 gene expression (hepatocytes): 1303.89
- Ccl12 gene expression (hepatocytes): 368.02
- Cd44 gene expression (hepatocytes): 680.16
- Cxcr4 gene expression (hepatocytes): 164.68
- Cyp1a2 gene expression (hepatocytes): 135.53
- Cyp2d1 gene expression (hepatocytes): 147.68
- Cyp2d5 gene expression (hepatocytes): 338.34
- Cyp3a23/3a1 gene expression (hepatocytes): 380.28
- Gstm1 gene expression (hepatocytes): 2230.15
- Gstm2 gene expression (hepatocytes): 715.15
- Gsto1 gene expression (hepatocytes): 1364.06
- Il1a gene expression (hepatocytes): 675.41
- Il1b gene expression (hepatocytes): 1551.37
- Jak2 gene expression (hepatocytes): 669.28
- Mmp9 gene expression (hepatocytes): 159.27
- Nos2 gene expression (hepatocytes): 90.7
- Slc7a6os gene expression (hepatocytes): 241.22
- Slc25a4 gene expression (hepatocytes): 671.16
- Slc25a19 gene expression (hepatocytes): 195.9
- Slc28a1 gene expression (hepatocytes): 50.32
- Slc28a2 gene expression (hepatocytes): 157.29
- Slc35a4 gene expression (hepatocytes): 157.88
- Slc37a4 gene expression (hepatocytes): 246.55
- Tlr2 gene expression (hepatocytes): 978.98
- Tlr7 gene expression (hepatocytes): 110.03
- Ugt2b5 gene expression (hepatocytes): 155.32
- cyp2a1 gene expression (hepatocytes): 216.95
- cyp2c22 gene expression (hepatocytes): 2009.34
- cyp4a10 gene expression (hepatocytes): 91.71
- cyp24a1 gene expression (hepatocytes): 56.9
- slc25a1 gene expression (hepatocytes): 1375.94
- slc25a5 gene expression (hepatocytes): 2038.43
- slc26a1 gene expression (hepatocytes): 181.21
- slc39a1 gene expression (hepatocytes): 489.71
- Mmp10 gene change (primary HSCs): ↓
- Mmp13 gene change (primary HSCs): N/C
- Ccl5 gene expression (HSCs): 0.957 fold change
- Ccl12 gene expression (HSCs): 1.167 fold change
- Ccl20 gene expression (HSCs): 0.999 fold change
- Col1a1 gene expression (HSCs): 3.014 fold change
- Col1a2 gene expression (HSCs): 2.256 fold change
- Col3a1 gene expression (HSCs): 1.878 fold change
- Col5a1 gene expression (HSCs): 2.322 fold change
- Col5a2 gene expression (HSCs): 1.583 fold change
- Col6a3 gene expression (HSCs): 1.611 fold change
- Col8a1 gene expression (HSCs): 2.240 fold change
- Csf2 gene expression (HSCs): 0.803 fold change
- Ctgf gene expression (HSCs): 1.919 fold change
- Cx3cl1 gene expression (HSCs): 0.864 fold change
- Cxcl5 gene expression (HSCs): 0.971 fold change
- Cxcl9 gene expression (HSCs): 0.875 fold change
- Cxcl11 gene expression (HSCs): 1.05 fold change
- Icam1 gene expression (HSCs): 1.371 fold change
- Il1a gene expression (HSCs): 0.517 fold change
- Il1b gene expression (HSCs): 0.322 fold change
- Il6 gene expression (HSCs): 0.791 fold change
- Il10 gene expression (HSCs): 0.837 fold change
- Mmp7 gene expression (HSCs): 1.692 fold change
- Mmp10 gene expression (HSCs): 1.856 fold change
- Mmp13 gene expression (HSCs): 1.342 fold change
- Smad2 gene expression (HSCs): 1.381 fold change
- Smad3 gene expression (HSCs): 1.116 fold change
- Smad4 gene expression (HSCs): 1.325 fold change
- Tgfb1 gene expression (HSCs): 1.502 fold change
- Tgfbr1 gene expression (HSCs): 1.317 fold change
- Timp1 gene expression (HSCs): 1.026 fold change
- Timp2 gene expression (HSCs): 1.823 fold change
- Tlr2 gene expression (HSCs): 1.092 fold change
- Tlr4 gene expression (HSCs): 1.349 fold change
- Tnf gene expression (HSCs): 1.078 fold change
- Tnfrsf5 gene expression (HSCs): 1.339 fold change
- Tnfrsf14 gene expression (HSCs): 1.373 fold change
- Vcam1 gene expression (HSCs): 1.482 fold change
